This experiment has as its system acetylcholine receptor clustering in C2Cl2 cells. The experiment in a line: Induction of acetylcholine receptor clustering in mouse myoblasts C2Cl2 cells (Test Example 1). It is filed as cell-based. The settings on record: for Emax / EC50: Mus musculus; for Emax: Myoblast, maximum response, area of acetylcholine receptor cluster region vs 10 ng/ml Agrin (100%), 0.1 ng/ml Agrin = 0%, read-out: Max; for EC50: Myotube, C2Cl2 myotubes, with 0.1 ng/ml Agrin, concentration giving 50% of cluster area of 10 ng/ml Agrin (100%), read-out: EC50. The method, then: Test Example 1: Evaluation of the Induction of Acetylcholine Receptor Clustering in Mouse Myoblasts C2Cl2 Cells
Induction of acetylcholine receptor clustering by the test compound was evaluated by using fluorescently-labeled Bungarotoxin to image and quantify the acetylcholine receptor cluster region induced by the differentiation of myoblasts into myotubes, and measure the change in area. The following test method was optimized with reference to various reports including FEBS let., 586, 3111-3116 (2012). When a concentration response curve is obtained by plotting the logarithmic concentration of the test compound on the horizontal axis and the ratio of the area of acetylcholine receptor cluster region on the vertical axis, the inducing action of the test compound can be determined.
A concentration response curve as an index indicating acetylcholine receptor clustering inducing action of the test compound in mouse C2Cl2 cells was prepared. C2Cl2 cells (ATCC Number: CRL-1772) were seeded at about 5000 cells/well on a 384-well plate (354667; Corning) coated with type I collagen and allowed to incubate at 37 degrees Celsius overnight in DMEM+20% FBS+1% penicillin/streptomycin medium. The following day, the medium was removed and replaced with a differentiation medium containing DMEM+2% FBS+1% penicillin/streptomycin, and allowed to incubate at 37 degrees Celsius for 4 days. The test compound was dissolved in DMSO and added to a differentiation medium containing 0.1 ng/ml Agrin (550-AG-100; R&D systems) such that the final concentration was […] (3-fold serial dilution) or 0.00017 to 3.3 μM (3-fold serial dilution). The final concentration of DMSO was 0.3%. After the 4 days of incubation, the differentiation medium was replaced with a differentiation medium containing the test compound and 0.1 ng/ml Agrin or a differentiation medium containing 0.1 ng/ml Agrin or 10 ng/ml Agrin alone, and allowed to incubate at 37 degrees Celsius overnight. The next day, 10 μl of DMEM containing Bungarotoxin-Alexa488 (B13422; Life technologies) was added to the differentiation medium containing test compound and Agrin and Agrin alone so that the final concentration of Bungarotoxin-Alexa488 was 1 μg/ml, and was allowed to incubate at 37 degrees Celsius for 1 hour to label the acetylcholine receptor. After removing all the medium, 4% PFA was added to each well and allowed to incubate at room temperature for 10 minutes, then washed with PBS, and allowed to incubate at room temperature for 30 minutes in PBS containing 5% goat serum and 0.3% Triton X-100. After removing the PBS solution, PBS-Tween20 (28352; Thermo fisher scientific) containing Anti-Myosin Heavy Chain eFluor (registered trademark) 660 (50-6503-82; eBioscience) and DAPI (340-07971; Dojindo) was added to each well and allowed to incubate at room temperature for 1 hour to label the myotubes and nuclei. After washing three times with PBS-Tween20, the fluorescence was imaged using IN Cell Analyzer 6000 (GE Healthcare). […] The response of control group (1) was regarded as 0% and the response of the control group (2) was regarded as 100%. For quantification, the signal of only the acetylcholine receptor present in the myotube was used to eliminate non-specific fluorescence.
EC50 and Max value were used as indicators of activity in order to quantitatively evaluate the inducing action of the test compound on acetylcholine receptor clustering. EC50 value is a test compound concentration which indicates 50% in terms of the area of acetylcholine receptor cluster region compared to that of 10 ng/ml Agrin (regarded as 100%) in the concentration response curve. EC50 was calculated by nonlinear regression analysis from the concentration response curve using the area of the cluster region of the test compound as an index. Max value is the maximum response value. […]

As a reminder, the EC50 is the midpoint of the concentration-response curve.

Counter-ions that a name gives are not always drawn.

With `Cc1cc(-c2ccc(S(=O)(=O)N3CCC[C@H]3CO)cc2F)nc2cc(C(=O)O)ccc12` [Example 48], the Emax is 74% and the EC50 was 3750 nM.

As for `Cc1c(F)c(-c2c(F)cc(S(=O)(=O)N3CC[C@H](F)C3)cc2F)nc2cc(CCN)ccc12` [Example 56], the Emax turned out to be 97% and the EC50 was 53 nM.

Regarding `Cc1cc(-c2ccc(S(=O)(=O)N3CCC[C@H](O)C3)cc2F)nc2cc(C(=O)O)ccc12` [Example 50], the Emax was 70.5% and the EC50 stood at 3520 nM.

Take `Cc1cc(-c2c(F)cc(S(=O)(=O)N3CC[C@H](F)C3)cc2F)nc2cc(C(=O)NC[C@H]3COCCN3)ccc12` [Example 52]: the Emax was determined as 94.2% and the EC50 was 33 nM.

As for `Cc1cc(-c2ccc(S(=O)(=O)N3CC[C@H](F)C3)cc2F)nc2cc(OCCN)ccc12` [Example 13, 2-[(2-{2-fluoro-4-[(3S)-3-fluoropyrrolidine-1-sulfonyl]phenyl}-4-methylquinolin-7-yl)oxy]ethan-1-amine hydrochloride], the Emax amounted to 117% and the EC50 was 3 nM.

For `Cc1cc(-c2c(F)cc(S(=O)(=O)N3CCC(F)CC3)cc2F)nc2nc(C(=O)O)ccc12` [Example 38], the Emax was 78.5% and the EC50 worked out at 724 nM.

With `CNCCNC(=O)c1ccc2c(C)cc(-c3c(F)cc(S(=O)(=O)N4CC[C@H](F)C4)cc3F)c(F)c2n1` [Example 15, 7-{2,6-difluoro-4-[(3S)-3-fluoropyrrolidine-1-sulfonyl]phenyl}-8-fluoro-5-methyl-N-[2-(methylamino)ethyl]quinoline-2-carboxamide hydrochloride], the Emax was found to be 105% and the EC50 worked out at 2 nM.

For the compound `Cc1cc(-c2c(F)cc(S(=O)(=O)N3CC[C@H](F)C3)cc2F)nc2nc(OCC(=O)O)ccc12` [Example 6, [(7-{2,6-difluoro-4-[(3S)-3-fluoropyrrolidine-1-sulfonyl]phenyl}-5-methyl-1,8-naphthyridin-2-yl)oxy]acetic acid], the Emax was found to be 76.3% and the EC50 was found to be 1820 nM.

On to `Cc1cc(-c2ccc(S(=O)(=O)N3C[C@@H](F)C[C@H]3CO)cc2F)nc2cc(C(=O)O)ccc12` [Example 28], for which the Emax was 74.2% and the EC50 was 4030 nM.

Consider `CO[C@@H]1CN(S(=O)(=O)c2ccc(-c3cc(C)c4ccc(C(=O)O)cc4n3)c(F)c2)C[C@H]1F` [Example 29], for which the Emax came to 46.2%. The “response, % at 30 μM” value (vs 10 ng/ml Agrin (100%)) is reported as 46.2% at 30 μM.

As to `Cc1cc(-c2c(F)cc(S(=O)(=O)N3CC[C@H](F)C3)cc2F)nc2cc(C(=O)N3CC4(CN(C)C4)C3)ccc12` [Example 42], the Emax turned out to be 78.1% and the EC50 is 19 nM.

With `Cc1cc(-c2ccc(S(=O)(=O)N3CC[C@H](F)C3)cc2F)nc2cc(C(=O)NS(=O)(=O)C3CC3)ccc12` [Example 9, N-(cyclopropanesulfonyl)-2-{2-fluoro-4-[(3S)-3-fluoropyrrolidine-1-sulfonyl]phenyl}-4-methylquinoline-7-carboxamide], the Emax was determined as 34.9%. Besides, where the note is “at 1.1 μM, vs 10 ng/ml Agrin (100%)”, the “response, % at 1.1 μM” value was 34.9% at 1.1 μM.

Turning to `Cc1c(F)c(-c2c(F)cc(S(=O)(=O)N3CC[C@H](F)C3)cc2F)nc2cc(C(=O)N3CC(C)(C(=O)O)C3)ccc12` [Example 11, 1-(2-{2,6-difluoro-4-[(3S)-3-fluoropyrrolidine-1-sulfonyl]phenyl}-3-fluoro-4-methylquinoline-7-carbonyl)-3-methylazetidine-3-carboxylic acid], the Emax was 80.2% and the EC50 worked out at 303 nM.

`Cc1cc(-c2c(F)cc(S(=O)(=O)N3CC[C@@H](F)C3)cc2F)nc2cc(C(=O)O)ccc12` [Example 22]: the Emax amounted to 84.8% and the EC50 worked out at 1900 nM.

As for `Cc1cc(-c2c(F)cc(S(=O)(=O)N3CC[C@H](F)C3)cc2F)nc2cc(/C=C/C(=O)O)ccc12` [Example 35], the Emax is 99.5% and the EC50 stood at 20 nM.

`Cc1cc(-c2c(F)cc(S(=O)(=O)N3CCC(F)CC3)cc2F)nc2cc(C(=O)N3CC(N)C3)ccc12` [Example 4, (3-aminoazetidin-1-yl) {2-[2,6-difluoro-4-(4-fluoropiperidine-1-sulfonyl)phenyl]-4-methylquinolin-7-yl}methanone]: the Emax was 81% and the EC50 was determined as 13 nM.

As to `Cc1cc(-c2c(F)cc(S(=O)(=O)N3CC[C@H](F)C3)cc2F)nc2nc(C3CCC(C(=O)O)CC3)ccc12` (stereo partly drawn) [Example 37], the Emax was found to be 70.1% and the EC50 was found to be 3220 nM.

`Cc1cc(-c2ccc(S(=O)(=O)N3CCCCC3)cc2)nc2cc(C(=O)O)ccc12` [Example 47]: the Emax came out at 102% and the EC50 is 428 nM.

In the case of `Cc1cc(-c2ccc(S(=O)(=O)N3CCCCC3)cc2)nc2cc(OCCO)ccc12` [Example 63], the Emax worked out at 104% and the EC50 came to 165 nM.

As for `Cc1cc(-c2c(F)cc(S(=O)(=O)N3CC[C@H](F)C3)cc2F)cc2nc(N3CCNCC3)ccc12` [Example 66], the Emax amounted to 88.4% and the EC50 was found to be 10 nM.

Take `Cc1cc(-c2ccc(S(=O)(=O)N3CC[C@H](F)C3)cc2F)nc2cc(C(=O)NCC3(O)CNC3)ccc12` [Example 65]: the Emax worked out at 84% and the EC50 stood at 53 nM.

`CNCCCc1ccc2c(C)c(F)c(-c3c(F)cc(S(=O)(=O)N4CC[C@H](F)C4)cc3F)nc2c1` [Example 16, 3-(2-{2,6-difluoro-4-[(3S)-3-fluoropyrrolidine-1-sulfonyl]phenyl}-3-fluoro-4-methylquinolin-7-yl)-N-methylpropan-1-amine hydrochloride]: the Emax is 91.1% and the EC50 was 45 nM.

Consider `Cc1cc(-c2c(F)cc(S(=O)(=O)N3CCC(F)CC3)cc2F)nc2cc(C(=O)N3CC4(CN(C)C4)C3)ccc12` [Example 3, {2-[2,6-difluoro-4-(4-fluoropiperidine-1-sulfonyl)phenyl]-4-methylquinolin-7-yl}(6-methyl-2,6-diazaspiro[3.3]heptan-2-yl) methanone], for which the Emax worked out at 91.8% and the EC50 amounted to 2 nM.

As to `Cc1cc(-c2ccc(S(=O)(=O)N3CC[C@H](F)C3)cc2CO)nc2cc(C(=O)O)ccc12` [Example 31], the Emax was determined as 48.8%. Besides, the “response, % at 30 μM” value (vs 10 ng/ml Agrin (100%)) came out at 48.8% at 30 μM.

`Cc1cc(-c2c(F)cc(S(=O)(=O)N3CC[C@H](F)C3)cc2F)nc2cc(C(=O)NCCN(C)C)ccc12` [Example 43]: the Emax turned out to be 91.6% and the EC50 amounted to 21 nM.

In the case of `Cc1cc(-c2c(F)cc(S(=O)(=O)N3CC[C@H](F)C3)cc2F)nc2cc(C(=O)NC3CCNC3)ccc12` (stereo partly drawn) [Example 53], the Emax was found to be 77.9% and the EC50 turned out to be 96 nM.

Take `Cc1cc(-c2c(F)cc(S(=O)(=O)N3CC[C@H](F)C3)cc2F)nc2cc(CC(=O)O)ccc12` [Example 33]: the Emax stood at 86.1% and the EC50 came to 65 nM.

With `Cc1c(F)c(-c2c(F)cc(S(=O)(=O)N3CCCC3)cc2F)nc2cc(C(=O)O)ccc12` [Example 23], the Emax stood at 85.9% and the EC50 is 69 nM.

In the case of `Cc1cc(S(=O)(=O)N2CC[C@H](F)C2)ccc1-c1nc2cc(C(=O)O)ccc2c(C)c1F` [Example 51], the Emax came to 77.8% and the EC50 is 159 nM.

As for `Cc1cc(-c2c(F)cc(S(=O)(=O)N3CCC(F)CC3)cc2F)nc2cc(C(=O)NC3CN(C)C3)ccc12` [Example 41], the Emax stood at 87% and the EC50 is 52 nM.

Source of the values: patent US20250084062A1, “SUBSTITUTED QUINOLINE DERIVATIVE” (ASTELLAS PHARMA INC., priority 2021, published 2025).
